Consider 1 compound from article PMC6340882, “Targeting protein kinase CK2 and CDK4/6 pathways with a multi-kinase inhibitor ON108110 suppresses pro-survival signaling and growth in mantle cell lymphoma and T-acute lymphoblastic leukemia” (Oncotarget, 2018).

One assay deals with T1, recombinant CK2α1 (Homo sapiens, UniProt P68400).
T1 construct: Amino acid residues 3-335 of CK2α1 were cloned using BamH1 and HindIII into pET28bsmt3-SUMO fusion vector; SUMO (N); made in house; host or cells: Escherichia coli BL21-DE3 (RIL)
T1 sequence (P68400 3-335): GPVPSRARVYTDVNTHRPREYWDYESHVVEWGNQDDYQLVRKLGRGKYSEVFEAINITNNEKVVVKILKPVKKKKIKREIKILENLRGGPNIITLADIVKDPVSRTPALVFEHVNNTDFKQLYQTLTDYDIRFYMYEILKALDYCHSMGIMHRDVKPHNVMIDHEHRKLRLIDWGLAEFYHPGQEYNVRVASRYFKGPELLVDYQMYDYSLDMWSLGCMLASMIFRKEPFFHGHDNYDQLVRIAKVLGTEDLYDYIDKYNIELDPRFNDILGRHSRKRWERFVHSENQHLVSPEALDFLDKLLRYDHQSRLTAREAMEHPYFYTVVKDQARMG
Kind of assay: Microscale thermophoresis (MST). The note with it: 16 concentrations 0.1nM-1000nM, average of 3 independent experiments. The class given is binding. On the procedure: Purified His6-CK2α1 (kinase domain) was labeled with red NT-647 cysteine-reactive dye according to the manufacturer (NanoTemper Technologies). A fixed quantity of NT-647-labeled CK2α1 (50nM) was incubated with the indicated concentrations of ON108110 in binding buffer (20 mM Tris-HCl, pH 7.5, 150 mM NaCl, 1 mM MgCl2, 0.1% Triton X-100, and 2% DMSO) at room temperature in the dark for 30 min. Samples were then loaded into hydrophilic capillaries (NanoTemper Technologies) and binding was measured using the Monolith NT.115 (NanoTemper Technologies). Binding data were analyzed using thermophoresis or hot/cold analysis, as previously described prior to normalization to either ΔFnorm[%(10^*(Fnorm(bound)-Fnorm(unbound)) or fraction bound (ΔFnorm[%]/amplitude). Dissociation constants (Kd) were calculated using built-in curve-fitting software provided by the manufacturer (NanoTemper Technologies).
(Microscale thermophoresis detects binding through changes in fluorescence in a small temperature gradient.)

In the next assay the target is CDK6 (Homo sapiens, UniProt Q00534). Kind of assay: In vitro kinase assay with recombinant protein (32P-ATP, filtermat). The class given is biochemical. The note with it: recombinant CDK6, independent in vitro kinase assay, 20μM ATP. On the procedure:
Figure 1 ON108110 is a multi-kinase inhibitor (A) Structure of the ON108XXO benzo thiazolidinnes chemotype. (B) Structure of ON108110. (C) Calculation of IC50 values against CDK4 and CDK6 and (D) CK2α1 and CK2α2 by ON108110. Recombinant proteins were incubated with the indicated concentrations of ON108110 and subjected to in vitro kinase assays as described in the materials and methods section. Values obtained were plotted as a function of log drug concentration. IC50 values were determined by performing sigmoidal non-linear regression with a variable slope.
Initial testing of ON108110 against a panel of 285 functional kinases was performed by Reaction Biology Corp (Malvern, PA). Recombinant CDK4/CYCLIN D1 or CK2α1 were mixed with their respective synthetic peptide substrates (10ng) and incubated with DMSO or increasing concentrations of ON108110 in 20μl kinase buffer [50mM Tris-HCl (pH 7.5), 10mM MgCl2, 1mM EGTA, 2mM DTT and 0.01% NP-40] for 30 min. at room temperature. Kinase reactions were carried out for 20 min at 30°C in the presence of 5μl of substrate-ATP mixture (1μg RB, 20μM ATP, 20μCi γ-^32P-ATP). […] The filtermat was then air-dried and analyzed using a phosphoimager. Densitometric values were plotted as a function of log drug concentration using Prism 4 GraphPad software and the IC50 values determined by plotting sigmoidal non-linear regression curves with variable slope (n=3).

The subject of assay [1] is CDK4/6-specific RB phosphorylation in Granta-519 and CEM cells. Briefly: Western blot of phosphorylated RB (Ser780 and Ser 807/811). Particulars: increasing concentrations, 24 hours. Type of assay: cell-based, human. On the procedure:
Figure 6 Inhibition of CK2/CDK4 mediated signaling by ON108110 (A) CEM and (B) Granta-519 cells were treated with increasing concentrations of ON 108110 for 24 hours. Whole cell extracts were subjected to western blot analysis using antibodies directed against the indicated proteins. GAPDH is shown as a loading control.
Cells were grown as indicated, lysed in lysis buffer (20mM Tris, pH 8.0/ 137mM NaCl/ 10% glycerol/ 1% NP-40) supplemented with 1X protease and phosphatase inhibitor cocktail on ice and resolved by SDS-PAGE. The proteins were transferred to a nitrocellulose membrane and subjected to Western blot analysis using the indicated antibodies. Proteins were visualized using an Odyssey imaging system (LI-COR Biosciences).
Background: In western blotting, separated proteins are transferred to a membrane and probed.

In another assay the test system is HBL2. Briefly: Growth inhibition (GI50), Cell Titer Blue. The class given is cell-based. Particulars: Homo sapiens; HBL2, Mantle Cell Lymphoma; 96 hrs post-treatment. On the procedure:
(§1) Cell lines were cultured in RPMI-1640 medium (Thermo Scientific) supplemented with 10% heat inactivated FBS and penicillin-streptomycin at 37°C under humidified conditions and 5% CO2. All cell lines tested negative for mycoplasma. […] Compounds were added 24 hrs post-plating at the indicated concentrations. Cell counts were determined from duplicate wells 96 hrs post-treatment using the Cell Titer Blue assay in conjunction with the GloMax plate reader (Promega).

The next assay has as its system K562. Briefly: Growth inhibition (GI50), Cell Titer Blue. Type of assay: cell-based. The note with it: Homo sapiens; K562, Chronic Myeloid Leukemia; 96 hrs post-treatment. How it is done: as §1
A general note: Resazurin is reduced to fluorescent resorufin, in cell work by metabolically active cells.

The subject of the next assay is MCF-7. Briefly: Growth inhibition (GI50), Cell Titer Blue. Type of assay: cell-based. The note with it: Homo sapiens, MCF7; MCF-7, Breast Cancer; 96 hrs post-treatment. On the procedure:
as §1

For the next assay, the system named is JVM2. Briefly: Growth inhibition (GI50), Cell Titer Blue. The class given is cell-based. The note with it: Homo sapiens, JVM-2; JVM2, Mantle Cell Lymphoma; 96 hrs post-treatment. How it is done: as §1
The test system of another assay is AsPc1. Kind of assay: Growth inhibition (GI50), Cell Titer Blue. The class given is cell-based. Particulars: Homo sapiens; AsPc1, Pancreatic Cancer; 96 hrs post-treatment. On the procedure:
as §1

Another assay relates to Z138C. Briefly: Growth inhibition (GI50), Cell Titer Blue. The class given is cell-based. Particulars: Homo sapiens, Mantle Cell Lymphoma, 96 hrs post-treatment. How it is done: as §1
The next assay has as its system GRANTA-519. Kind of assay: Growth inhibition (GI50), Cell Titer Blue. Type of assay: cell-based. Particulars: Homo sapiens; GRANTA-519, Mantle Cell Lymphoma; 96 hrs post-treatment. On the procedure: as §1
Another assay has as its system 22Rv1. Kind of assay: Growth inhibition (GI50), Cell Titer Blue. Particulars: Homo sapiens; 22Rv1, Prostate Cancer; 96 hrs post-treatment. The class given is cell-based. How it is done:
as §1

A further assay deals with LnCap. Briefly: Growth inhibition (GI50), Cell Titer Blue. Type of assay: cell-based. Particulars: Homo sapiens, Prostate Cancer, 96 hrs post-treatment. How it is done: as §1
Assay [2] deals with MCL and ALL cell lines as well as normal PBMCs. Briefly: GI50 of MCL and ALL cell lines compared to normal PBMCs (Figure 4C). The note with it: MCL and T-ALL cell lines vs PBMCs in vitro, 72 hours post-treatment. Type of assay: cell-based, human. How it is done:
Figure 4 CK2 and CDK4 expression in cell lines and primary samples (A) mRNA levels of CK2 subunits in a panel of MCL and T-ALL leukemic cell lines and normal human PBMCs. (B) Protein levels of CK2 subunits and pRB^Ser807/811 in a panel of MCL and T-ALL leukemic cell lines and normal human PBMCs. (C) Calculation of GI50 values against of ON108110 against MCL and ALL cell lines as well as normal PBMCs 72 hours post-treatment.
Cell lines were cultured in RPMI-1640 medium (Thermo Scientific) supplemented with 10% heat inactivated FBS and penicillin-streptomycin at 37°C under humidified conditions and 5% CO2. All cell lines tested negative for mycoplasma. […] Compounds were added 24 hrs post-plating at the indicated concentrations. […]

Sequence of CDK6 (Q00534 whole entry): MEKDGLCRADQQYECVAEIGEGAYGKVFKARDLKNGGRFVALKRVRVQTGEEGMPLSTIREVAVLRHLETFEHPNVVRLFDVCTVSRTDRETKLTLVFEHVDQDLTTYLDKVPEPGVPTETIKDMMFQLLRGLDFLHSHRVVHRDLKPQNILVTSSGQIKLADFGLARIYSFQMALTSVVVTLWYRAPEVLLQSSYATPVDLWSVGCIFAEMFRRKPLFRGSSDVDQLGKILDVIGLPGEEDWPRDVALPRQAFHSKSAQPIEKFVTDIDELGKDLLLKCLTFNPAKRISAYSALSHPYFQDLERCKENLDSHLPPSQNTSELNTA
Sequence of CDK6 (P24385 whole entry partner): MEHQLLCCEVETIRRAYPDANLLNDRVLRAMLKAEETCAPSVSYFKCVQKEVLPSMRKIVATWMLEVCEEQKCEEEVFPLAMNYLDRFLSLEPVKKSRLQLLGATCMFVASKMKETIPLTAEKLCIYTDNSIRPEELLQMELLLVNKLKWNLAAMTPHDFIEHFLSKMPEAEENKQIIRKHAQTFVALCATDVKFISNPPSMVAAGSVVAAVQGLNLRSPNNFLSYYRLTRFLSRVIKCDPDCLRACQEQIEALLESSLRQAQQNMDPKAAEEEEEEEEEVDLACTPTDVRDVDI

As usually defined, the Kd is the constant that tells how readily two partners part at equilibrium. For orientation: IC50 means the concentration needed to halve the response being measured. As usually defined, the GI50 is the concentration giving 50% growth inhibition. Read a low GI50 as more potent growth inhibition. Regarding `CC(=O)Oc1ccc(/C=C2\Sc3ccc(F)cc3NC2=O)cc1[N+](=O)[O-]` [ON108110], at recombinant CK2α1, the Kd turned out to be 2.5 nM. Besides, the IC50 on CDK6 came to 10 nM. Further, the “CDK4/6-specific RB phosphorylation (Ser780 and Ser 807/811)” value in assay [1] is listed as “concentration-dependent inhibition”. The GI50 in the assay on HBL2 was found to be 250 nM; with K562 it was 2200 nM; in the assay with MCF-7, 800 nM; in the assay with JVM2 it was 300 nM; with AsPc1 it was 2800 nM; in the assay on Z138C, 600 nM. For the same compound, the GI50 in the assay with GRANTA-519 is 150 nM; in the assay on 22Rv1, greater than 5000 nM; in the assay with LnCap it was greater than 5000 nM. For the same compound, the “fold more sensitive compared to PBMCs (IC50 values)” value in [2] was greater than 100 fold.
